Assay results: patent US6319702A, “Nucleic acids encoding mutant human carboxypeptidase A enzymes” (Glaxo Wellcome, Inc., priority 1993, dated 2001)
Where “and” joins values, the source holds several entries; their conditions need not be identical. Equal entries are not always repeated. Where two headings read alike, the source gives them in different places. Blank lines part the entries; values can stand above or below the compound they belong to.

Test: Stability and biodistribution of prodrugs in vivo (HPLC of plasma and tissues)
Design: species or system mice (CD-1 nude; BALB/C where indicated)
Conditions: 50 mg/kg i.p. or i.v., CD-1 nude mice
[1] = LARGE INTESTINE, 30 min, 50 mg/kg
[2] = LIVER, 120 min, listed as 552W92, 50 mg/kg
[3] = mouse, kidney, 50 mg/kg, KIDNEY, 30 min, read-out: stability: percentage of material observed as intact prodrug, kidney
[4] = mouse, kidney, 50 mg/kg, KIDNEY, 120 min, read-out: stability: percentage of material observed as intact prodrug, kidney
[5] = mouse, large intestine, 50 mg/kg, LARGE INTESTINE, 30 min, read-out: stability: percentage of material observed as intact prodrug, large intestine
[6] = mouse, large intestine, 50 mg/kg, LARGE INTESTINE, 120 min, read-out: stability: percentage of material observed as intact prodrug, large intestine
[7] = mouse, liver, 50 mg/kg, LIVER, 30 min, read-out: stability: percentage of material observed as intact prodrug, liver (converted)
[8] = mouse, liver, 50 mg/kg, LIVER, 120 min, read-out: stability: percentage of material observed as intact prodrug, liver
[9] = mouse, plasma, 50 mg/kg, PLASMA, 30 min, read-out: stability: percentage of material observed as intact prodrug, plasma
[10] = mouse, plasma, 50 mg/kg, PLASMA, 120 min, read-out: concentration of prodrug in plasma
[11] = mouse, small intestine, 50 mg/kg, SMALL INTESTINE, 30 min, read-out: stability: percentage of material observed as intact prodrug, small intestine
[12] = mouse, small intestine, 50 mg/kg, SMALL INTESTINE, 120 min, read-out: stability: percentage of material observed as intact prodrug, small intestine
[13] = mouse, spleen, 50 mg/kg, SPLEEN, 30 min, read-out: stability: percentage of material observed as intact prodrug, spleen
[14] = mouse, spleen, 50 mg/kg, SPLEEN, 120 min, read-out: stability: percentage of material observed as intact prodrug, spleen

concentration of prodrug in kidney (KIDNEY, 30 min, 50 mg/kg): 41.7 nmol/g and 29.2 nmol/g
concentration of prodrug in large intestine [1]: 23.4 nmol/g and 14.9 nmol/g
stability: percentage of material observed as intact prodrug, large intestine [1]: 94%
concentration of prodrug in large intestine (LARGE INTESTINE, 120 min, listed as 552W92, 50 mg/kg): 1.7 nmol/g and 1.1 nmol/g
concentration of prodrug in liver (LIVER, 30 min, 50 mg/kg): 128.8 nmol/g and 135.3 nmol/g
concentration of prodrug in liver [2]: 267.9 nmol/g and 371.2 nmol/g
stability: percentage of material observed as intact prodrug, liver [2]: 90%
stability: percentage of material observed as intact prodrug, plasma (PLASMA, 120 min, listed as 552W92, 50 mg/kg): 48%
concentration (PLASMA, 120 min, listed as 552W92, 50 mg/kg, 120 min, read-out: concentration of prodrug in plasma): 2.8 µM
concentration of prodrug in small intestine (SMALL INTESTINE, 30 min): 27.7 nmol/g
concentration of prodrug in small intestine (SMALL INTESTINE, 120 min): 1.8 nmol/g
stability: percentage of material observed as intact prodrug, spleen (SPLEEN, 30 min, 50 mg/kg): 100%
stability: percentage of material observed as intact prodrug, spleen (SPLEEN, 120 min, listed as 552W92, 50 mg/kg): 100%
remaining at 0.5 h [3]: 82%
remaining at 2 h [4]: 74%
remaining at 0.5 h [5]: 87%
remaining at 2 h [6]: 89%
remaining at 0.5 h [7]: 79%
remaining at 2 h [8]: 74%
remaining at 0.5 h [9]: 93%
concentration at 2 h [10]: 5.1 µM
remaining at 0.5 h [11]: 10%
remaining at 2 h [12]: 1%
remaining at 0.5 h [13]: 95%
remaining at 2 h [14]: 89%
SMILES: Cc1nc2ccc3ccc(CNc4ccc(C(=O)N[C@@H](CCC(=O)O)C(=O)N[C@@H](Cc5cccc6ccccc56)C(=O)O)c(F)c4)cc3c2c(=O)[nH]1 [Prodrug 3, N-(N-(2-fluoro-4-(((1,2-dihydro-3-methyl-1-oxobenzo(F)quinazolin-9-yl)methyl)amino)benzoyl)-L-glutam-1-yl)-3-(1-naphthyl)-L-alanine]

concentration of prodrug in cecum (CECUM, 30 min): 7.5 nmol/g
concentration of prodrug in cecum (CECUM, 120 min): 0.8 nmol/g
concentration of prodrug in feces (FECES, 30 min): 42 nmol/g
concentration of prodrug in feces (FECES, 120 min): 207 nmol/g
concentration of prodrug in kidney (KIDNEY, 30 min): 93.4 nmol/g
concentration of prodrug in kidney (KIDNEY, 120 min): 12.6 nmol/g
concentration of prodrug in large intestine (LARGE INTESTINE, 30 min): 5.7 nmol/g
concentration of prodrug in large intestine (LARGE INTESTINE, 120 min): 19.4 nmol/g
concentration of prodrug in liver (LIVER, 30 min): 287.8 nmol/g
concentration of prodrug in liver (LIVER, 120 min): 161.6 nmol/g
concentration of prodrug in small intestine (SMALL INTESTINE, 30 min): 21.3 nmol/g
concentration of prodrug in small intestine (SMALL INTESTINE, 120 min): 14.2 nmol/g
concentration of prodrug in spleen (SPLEEN, 30 min): 3.4 nmol/g
concentration of prodrug in spleen (SPLEEN, 120 min): 0.0 nmol/g
concentration of prodrug in tumor (TUMOR, 30 min): 7.5 nmol/g
concentration of prodrug in tumor (TUMOR, 120 min): 0.8 nmol/g
remaining at 0.5 h (mouse, cecum, 50 mg/kg, CECUM, 30 min, read-out: stability: percentage of material observed as intact prodrug, cecum): 82%
remaining at 2 h (mouse, cecum, 50 mg/kg, CECUM, 120 min, read-out: stability: percentage of material observed as intact prodrug, cecum): 59%
remaining at 0.5 h (mouse, feces, 50 mg/kg, FECES, 30 min, read-out: stability: percentage of material observed as intact prodrug, feces (converted)): 21%
remaining at 2 h (mouse, feces, 50 mg/kg, FECES, 120 min, read-out: stability: percentage of material observed as intact prodrug, feces): 52%
remaining at 0.5 h [3]: 98%
remaining at 2 h [4]: 98%
remaining at 0.5 h [5]: 100%
remaining at 2 h [6]: 65%
remaining at 0.5 h [7]: 97%
remaining at 2 h [8]: 93%
concentration at 0.5 h (mouse, plasma, 50 mg/kg, PLASMA, 30 min, read-out: concentration of prodrug in plasma): 46.7 µM
remaining at 0.5 h [9]: 100%
concentration at 2 h [10]: 2 µM
remaining at 2 h (mouse, plasma, 50 mg/kg, PLASMA, 120 min, read-out: stability: percentage of material observed as intact prodrug, plasma): 100%
remaining at 0.5 h [11]: 86%
remaining at 2 h [12]: 54%
remaining at 0.5 h [13]: 70%
remaining at 2 h [14]: 0%
remaining at 0.5 h (mouse, tumor, 50 mg/kg, TUMOR, 30 min, read-out: stability: percentage of material observed as intact prodrug, tumor): 82%
remaining at 2 h (mouse, tumor, 50 mg/kg, TUMOR, 120 min, read-out: stability: percentage of material observed as intact prodrug, tumor): 59%
SMILES: CN(Cc1cnc2nc(N)nc(N)c2n1)c1ccc(C(=O)N[C@@H](CCC(=O)O)C(=O)N[C@@H](CC(=O)O)C(=O)O)cc1 [Prodrug 6]
